Measured values as given in ChEMBL document CHEMBL1909046, “DrugMatrix in vitro pharmacology data”.

What was measured:
[1] = molecular target: Mitogen-activated protein kinase 14 (Homo sapiens, UniProt Q16539); design: species or system Escherichia coli;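 note: inhibition of p38alpha enzyme activity in a biochemical kinase assay, with myelin basic protein serving as substrate; in other assays of this panel Not Active means under 50% inhibition at 10 µM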
[2] = DRUGMATRIX: Leukotriene, BLT (LTB4) radioligand binding (ligand: [3H]LTB4); type: cell membranes, Membrane; details: u-937; Not Active = under 50% inhibition at 10 µM
Glycine receptor = Glycine receptor (Rattus norvegicus, UniProt P22771+P24524+P07727+P20781); type: cell membranes, Wistar, Spinal cord, Membrane; note: in other assays of this panel Not Active means under 50% inhibition at 10 µM
Cytochrome P450 2E1 = Cytochrome P450 2E1 (Homo sapiens, UniProt P05181); details: bti-tn-5b1-4; note: in other assays of this panel Not Active means under 50% inhibition at 10 µM
Sequence of Cytochrome P450 2E1 (P05181 whole entry): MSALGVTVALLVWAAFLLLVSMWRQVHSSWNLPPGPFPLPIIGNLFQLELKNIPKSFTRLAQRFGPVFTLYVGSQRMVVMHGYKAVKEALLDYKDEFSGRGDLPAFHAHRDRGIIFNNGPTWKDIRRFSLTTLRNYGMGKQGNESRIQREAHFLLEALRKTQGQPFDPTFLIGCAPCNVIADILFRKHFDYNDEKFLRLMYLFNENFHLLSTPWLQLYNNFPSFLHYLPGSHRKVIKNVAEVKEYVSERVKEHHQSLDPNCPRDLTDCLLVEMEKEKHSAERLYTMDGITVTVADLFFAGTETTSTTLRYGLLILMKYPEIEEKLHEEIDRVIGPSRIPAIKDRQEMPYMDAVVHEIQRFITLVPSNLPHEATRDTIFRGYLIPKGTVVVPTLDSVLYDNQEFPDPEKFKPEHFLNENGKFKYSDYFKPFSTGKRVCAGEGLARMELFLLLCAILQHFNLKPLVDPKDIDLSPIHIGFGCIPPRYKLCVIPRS

[3] = molecular target: Tyrosine-protein kinase Lck (Homo sapiens, UniProt P06239); test: DRUGMATRIX: Protein Tyrosine Kinase, LCK enzyme inhibition (substrate: Poly(Glu:Tyr)); type: cell-based, Insect cells; details: insect cells; Not Active = under 50% inhibition at 10 µM
Sequence of Tyrosine-protein kinase Lck (P06239 whole entry): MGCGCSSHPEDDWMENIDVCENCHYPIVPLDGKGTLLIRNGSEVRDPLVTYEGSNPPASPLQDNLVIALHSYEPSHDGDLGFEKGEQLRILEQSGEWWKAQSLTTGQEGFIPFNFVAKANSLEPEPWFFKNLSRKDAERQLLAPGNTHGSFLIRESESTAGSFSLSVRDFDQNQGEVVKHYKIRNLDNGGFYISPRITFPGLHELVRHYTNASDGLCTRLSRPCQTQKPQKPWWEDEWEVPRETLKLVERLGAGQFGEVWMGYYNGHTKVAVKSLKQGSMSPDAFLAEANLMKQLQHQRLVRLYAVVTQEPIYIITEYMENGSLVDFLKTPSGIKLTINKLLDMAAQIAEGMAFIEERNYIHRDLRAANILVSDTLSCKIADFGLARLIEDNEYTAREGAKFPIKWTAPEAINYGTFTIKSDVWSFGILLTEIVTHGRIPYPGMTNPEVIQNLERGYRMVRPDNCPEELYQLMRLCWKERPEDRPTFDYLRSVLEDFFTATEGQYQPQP

Cannabinoid receptor 1 = Cannabinoid receptor 1 (Homo sapiens, UniProt P21554); type: cell membranes, Membrane; details: chem-1; note: in other assays of this panel Not Active means under 50% inhibition at 10 µM
Sequence of Cannabinoid receptor 1 (P21554 whole entry): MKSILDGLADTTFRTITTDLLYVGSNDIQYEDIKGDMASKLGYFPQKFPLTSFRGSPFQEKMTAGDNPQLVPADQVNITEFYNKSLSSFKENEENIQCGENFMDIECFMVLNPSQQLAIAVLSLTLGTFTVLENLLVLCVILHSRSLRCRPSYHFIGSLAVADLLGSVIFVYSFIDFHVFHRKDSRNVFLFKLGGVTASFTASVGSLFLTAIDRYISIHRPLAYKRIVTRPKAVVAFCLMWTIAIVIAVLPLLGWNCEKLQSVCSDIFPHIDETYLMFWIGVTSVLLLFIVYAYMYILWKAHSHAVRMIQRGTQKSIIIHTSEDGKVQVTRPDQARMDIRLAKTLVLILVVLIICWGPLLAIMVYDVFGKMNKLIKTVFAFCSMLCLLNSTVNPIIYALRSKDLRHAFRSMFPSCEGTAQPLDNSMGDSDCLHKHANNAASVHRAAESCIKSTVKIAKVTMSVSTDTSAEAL

Melanocortin receptor 4 = Melanocortin receptor 4 (Homo sapiens, UniProt P32245); type: cell membranes, Membrane; details: hek293; note: in other assays of this panel Not Active means under 50% inhibition at 10 µM
Sequence of Melanocortin receptor 4 (P32245 whole entry): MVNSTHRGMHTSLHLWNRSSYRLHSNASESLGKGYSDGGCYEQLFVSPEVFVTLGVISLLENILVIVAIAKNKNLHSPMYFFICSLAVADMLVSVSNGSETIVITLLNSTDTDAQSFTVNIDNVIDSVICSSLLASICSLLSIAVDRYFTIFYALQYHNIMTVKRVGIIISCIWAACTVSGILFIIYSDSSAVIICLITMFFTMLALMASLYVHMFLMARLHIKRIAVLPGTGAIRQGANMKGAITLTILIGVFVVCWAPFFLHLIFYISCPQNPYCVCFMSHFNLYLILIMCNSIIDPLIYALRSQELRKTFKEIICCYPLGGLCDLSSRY

[4] = molecular target: T1, Polyunsaturated fatty acid lipoxygenase ALOX15 (Oryctolagus cuniculus, UniProt P12530); test: biochemical; type: tissue-based, Reticulocytes; details: reticulocytes
T1 sequence (P12530 whole entry): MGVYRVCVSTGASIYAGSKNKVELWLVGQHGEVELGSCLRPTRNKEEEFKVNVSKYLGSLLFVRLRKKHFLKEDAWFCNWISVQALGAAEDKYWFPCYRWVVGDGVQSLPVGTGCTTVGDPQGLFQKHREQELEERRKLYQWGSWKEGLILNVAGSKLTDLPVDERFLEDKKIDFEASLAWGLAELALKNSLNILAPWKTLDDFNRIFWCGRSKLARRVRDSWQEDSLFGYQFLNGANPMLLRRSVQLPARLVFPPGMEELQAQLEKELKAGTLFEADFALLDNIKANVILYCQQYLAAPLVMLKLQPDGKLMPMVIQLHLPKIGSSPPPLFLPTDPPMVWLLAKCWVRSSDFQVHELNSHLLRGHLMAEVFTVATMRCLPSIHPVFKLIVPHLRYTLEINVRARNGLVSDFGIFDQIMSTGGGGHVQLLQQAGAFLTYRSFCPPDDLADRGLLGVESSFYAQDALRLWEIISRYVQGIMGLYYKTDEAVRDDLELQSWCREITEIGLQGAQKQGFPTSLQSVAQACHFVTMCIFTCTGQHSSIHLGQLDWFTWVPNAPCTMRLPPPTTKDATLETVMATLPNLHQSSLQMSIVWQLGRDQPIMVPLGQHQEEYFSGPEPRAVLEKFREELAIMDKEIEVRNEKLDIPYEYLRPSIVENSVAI

[5] = molecular target: T2, Nitric oxide synthase, inducible (Mus musculus, UniProt P29477); design: species or system Escherichia coli
T2 sequence (P29477 whole entry): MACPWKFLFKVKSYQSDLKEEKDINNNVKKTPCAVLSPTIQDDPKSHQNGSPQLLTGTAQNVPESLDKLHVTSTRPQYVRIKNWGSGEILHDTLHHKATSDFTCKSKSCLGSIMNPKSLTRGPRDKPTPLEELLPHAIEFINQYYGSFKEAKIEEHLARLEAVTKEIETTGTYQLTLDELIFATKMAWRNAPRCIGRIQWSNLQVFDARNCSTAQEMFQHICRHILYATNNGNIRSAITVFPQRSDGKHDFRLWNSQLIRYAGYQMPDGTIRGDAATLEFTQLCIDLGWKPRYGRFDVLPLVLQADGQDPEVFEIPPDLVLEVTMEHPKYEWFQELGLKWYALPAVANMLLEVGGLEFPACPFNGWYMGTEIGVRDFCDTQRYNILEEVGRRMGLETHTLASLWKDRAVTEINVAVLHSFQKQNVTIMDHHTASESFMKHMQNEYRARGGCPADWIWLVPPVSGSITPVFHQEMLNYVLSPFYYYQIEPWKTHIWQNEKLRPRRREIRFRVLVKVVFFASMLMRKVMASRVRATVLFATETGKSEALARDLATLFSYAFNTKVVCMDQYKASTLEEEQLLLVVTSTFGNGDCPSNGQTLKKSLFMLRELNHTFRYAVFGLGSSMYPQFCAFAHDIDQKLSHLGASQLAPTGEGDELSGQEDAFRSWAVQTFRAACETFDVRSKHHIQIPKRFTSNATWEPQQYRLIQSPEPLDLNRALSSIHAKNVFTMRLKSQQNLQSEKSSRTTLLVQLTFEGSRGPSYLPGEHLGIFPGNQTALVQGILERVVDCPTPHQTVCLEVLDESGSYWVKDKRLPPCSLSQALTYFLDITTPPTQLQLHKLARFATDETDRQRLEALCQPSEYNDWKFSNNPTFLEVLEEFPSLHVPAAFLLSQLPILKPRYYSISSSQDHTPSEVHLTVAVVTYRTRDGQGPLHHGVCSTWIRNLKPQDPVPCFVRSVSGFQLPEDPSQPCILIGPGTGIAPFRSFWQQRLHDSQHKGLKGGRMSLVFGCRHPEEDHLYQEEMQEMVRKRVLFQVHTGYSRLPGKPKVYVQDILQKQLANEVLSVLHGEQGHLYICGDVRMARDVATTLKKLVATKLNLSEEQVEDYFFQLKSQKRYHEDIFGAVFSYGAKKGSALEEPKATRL

[6] = DRUGMATRIX: Calcium Channel Type L, Dihydropyridine radioligand binding (ligand: [3H] Nitrendipine); type: cell membranes, Rattus norvegicus, Wistar, Cerebral cortex, Membrane; details: Not Active = under 50% inhibition at 10 µM
D(3) dopamine receptor = D(3) dopamine receptor (Homo sapiens, UniProt P35462); test: DRUGMATRIX: Dopamine D3 radioligand binding (ligand: [3H] Spiperone); type: cell membranes, CHO, Membrane; details: cho
Sequence of D(3) dopamine receptor (P35462 whole entry): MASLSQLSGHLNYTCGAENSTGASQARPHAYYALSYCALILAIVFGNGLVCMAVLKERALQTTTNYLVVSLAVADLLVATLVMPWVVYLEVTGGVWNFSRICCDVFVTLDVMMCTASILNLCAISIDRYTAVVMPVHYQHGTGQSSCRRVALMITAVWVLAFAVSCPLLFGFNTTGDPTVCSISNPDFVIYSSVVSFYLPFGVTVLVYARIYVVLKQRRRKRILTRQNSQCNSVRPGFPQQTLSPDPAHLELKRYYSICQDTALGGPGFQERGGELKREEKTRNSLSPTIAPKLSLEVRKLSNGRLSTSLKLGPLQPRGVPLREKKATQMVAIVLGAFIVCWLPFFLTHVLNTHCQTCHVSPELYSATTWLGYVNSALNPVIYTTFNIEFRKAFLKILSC

[7] = molecular target: T3, Type-2 angiotensin II receptor (Homo sapiens, UniProt P50052); type: cell-based; details: cho-k1; note: in other assays of this panel Not Active means under 50% inhibition at 10 µM
T3 sequence (P50052 whole entry): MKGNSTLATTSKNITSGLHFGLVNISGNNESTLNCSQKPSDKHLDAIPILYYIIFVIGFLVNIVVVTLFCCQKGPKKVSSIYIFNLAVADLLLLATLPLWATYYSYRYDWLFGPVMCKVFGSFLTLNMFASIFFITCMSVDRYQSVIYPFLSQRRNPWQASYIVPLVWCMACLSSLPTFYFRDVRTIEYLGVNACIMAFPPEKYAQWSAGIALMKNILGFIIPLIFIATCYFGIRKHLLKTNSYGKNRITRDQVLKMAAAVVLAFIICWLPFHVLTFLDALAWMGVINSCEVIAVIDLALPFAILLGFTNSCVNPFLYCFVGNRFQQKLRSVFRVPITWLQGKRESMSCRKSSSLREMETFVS

Sequence of Mitogen-activated protein kinase 14 (Q16539 whole entry): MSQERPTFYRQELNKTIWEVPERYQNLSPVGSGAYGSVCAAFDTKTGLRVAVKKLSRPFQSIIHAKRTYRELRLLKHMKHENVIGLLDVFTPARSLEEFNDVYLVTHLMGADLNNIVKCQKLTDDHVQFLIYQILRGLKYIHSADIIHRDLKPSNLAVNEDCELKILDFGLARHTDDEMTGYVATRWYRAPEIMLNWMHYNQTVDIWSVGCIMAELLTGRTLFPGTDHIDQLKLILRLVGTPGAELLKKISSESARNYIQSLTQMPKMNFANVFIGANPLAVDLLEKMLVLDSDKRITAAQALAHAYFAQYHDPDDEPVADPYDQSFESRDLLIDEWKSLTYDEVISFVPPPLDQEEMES

Nc1nc(=O)[nH]cc1F [FLUCYTOSINE]
Not Active: IC50 [1] | IC50 [2] | Ki [2] | IC50 (Glycine receptor) | IC50 (Cytochrome P450 2E1) | Ki (Cytochrome P450 2E1) | IC50 [3] | IC50 (Cannabinoid receptor 1) | IC50 (Melanocortin receptor 4) | IC50 [4] | IC50 [5] | IC50 [6] | Ki [6] | IC50 (D(3) dopamine receptor) | IC50 [7]

O=C1OC2(c3ccc(O)cc3Oc3cc(O)ccc32)c2ccccc21 [FLUORESCEIN]
Not Active: IC50 [1] | IC50 [2] | Ki [2] | IC50 (Glycine receptor) | IC50 (Cytochrome P450 2E1) | Ki (Cytochrome P450 2E1) | IC50 [3] | IC50 (Cannabinoid receptor 1) | IC50 (Melanocortin receptor 4) | IC50 [4] | IC50 [5] | IC50 [6] | Ki [6] | IC50 (D(3) dopamine receptor) | IC50 [7]

CC(=O)[C@@]1(O)CC[C@H]2[C@@H]3C[C@H](C)C4=CC(=O)C=C[C@]4(C)[C@@]3(F)[C@@H](O)C[C@@]21C [FLUOROMETHOLONE]
Not Active: IC50 [1] | IC50 [2] | Ki [2] | IC50 (Glycine receptor) | IC50 (Cytochrome P450 2E1) | Ki (Cytochrome P450 2E1) | IC50 [3] | IC50 (Cannabinoid receptor 1) | IC50 (Melanocortin receptor 4) | IC50 [4] | IC50 [5] | IC50 [6] | Ki [6] | IC50 (D(3) dopamine receptor) | IC50 [7]

O=c1[nH]cc(F)c(=O)[nH]1 [FLUOROURACIL]
Not Active: IC50 [1] | IC50 [2] | Ki [2] | IC50 (Glycine receptor) | IC50 (Cytochrome P450 2E1) | Ki (Cytochrome P450 2E1) | IC50 [3] | IC50 (Cannabinoid receptor 1) | IC50 (Melanocortin receptor 4) | IC50 [4] | IC50 [5] | IC50 [6] | Ki [6] | IC50 (D(3) dopamine receptor) | IC50 [7]

CC(C)n1c(/C=C/C(O)CC(O)CC(=O)O)c(-c2ccc(F)cc2)c2ccccc21 (stereo not given) [FLUVASTATIN]
Not Active: IC50 [1] | IC50 [2] | Ki [2] | IC50 (Glycine receptor) | IC50 (Cytochrome P450 2E1) | Ki (Cytochrome P450 2E1) | IC50 [3] | IC50 (Cannabinoid receptor 1) | IC50 (Melanocortin receptor 4) | IC50 [4] | IC50 [5] | IC50 [6] | Ki [6] | IC50 (D(3) dopamine receptor) | IC50 [7]

NCC1(CC(=O)O)CCCCC1 [GABAPENTIN]
Not Active: IC50 [1] | IC50 [2] | Ki [2] | IC50 (Glycine receptor) | IC50 (Cytochrome P450 2E1) | Ki (Cytochrome P450 2E1) | IC50 [3] | IC50 (Cannabinoid receptor 1) | IC50 (Melanocortin receptor 4) | IC50 [4] | IC50 [5] | IC50 [6] | Ki [6] | IC50 (D(3) dopamine receptor) | IC50 [7]

CC[N+](CC)(CC)CCOc1cccc(OCC[N+](CC)(CC)CC)c1OCC[N+](CC)(CC)CC.[I-].[I-].[I-] [GALLAMINE TRIETHIODIDE]
Not Active: IC50 [1] | IC50 [2] | Ki [2] | IC50 (Glycine receptor) | IC50 (Cytochrome P450 2E1) | Ki (Cytochrome P450 2E1) | IC50 [3] | IC50 (Cannabinoid receptor 1) | IC50 (Melanocortin receptor 4) | IC50 [4] | IC50 [5] | IC50 [6] | Ki [6] | IC50 (D(3) dopamine receptor) | IC50 [7]
